Experimental data from US10765114B2, “4-amino-6-(pyridyl and 2-substitutedphenyl)-picolinates and 6-amino-2-(pyridyl and 2-substitutedphenyl)-pyrimidine-4-carboxylates and their use as herbicides” (Dow AgroSciences LLC, priority 2013, dated 2020).

These compounds were tested on SEBEX: hemp sesbania, Sesbania exaltata (assay: Postemergence Herbicidal Activity in Direct Seeded Rice). Conditions: 35 g ai/ha, postemergence, direct seeded rice.
Assay type: in vivo
Source text: (§1) Seeds or nutlets of the desired test plant species were planted in a soil matrix prepared by mixing a loam soil (43 percent silt, 19 percent clay, and 38 percent sand, with a pH of about 8.1 and an organic matter content of about 1.5 percent) and river sand in an 80 to 20 ratio. The soil matrix was contained in plastic pots with a surface area of 139.7 cm^2. When required to ensure good germination and healthy plants, a fungicide treatment and/or other chemical or physical treatment was applied. The plants were grown for 10-17 days in a greenhouse with an approximate 14-h photoperiod which was maintained at about 29° C. during the day and 26° C. during the night. Nutrients and water were added on a regular basis and supplemental lighting was provided with overhead metal halide 1000-Watt lamps as necessary. The plants were employed for testing when they reached the second or third true leaf stage.
(§2) A weighed amount, determined by the highest rate to be tested, of each test compound was placed in 25 mL glass vials and dissolved in a volume of 97:3 v/v acetone-DMSO to obtain 12× stock solutions. […] The concentrated stock solutions were added to the spray solutions so that the final acetone and DMSO concentrations were 16.2% and 0.5%, respectively. Spray solutions were diluted to the appropriate final concentrations with the addition of 10 mL of an aqueous mixture of 1.5% (v/v) Agri-dex crop oil concentrate. The final spray solutions contained 1.25% (v/v) Agri-dex crop oil concentrate. Compound requirements are based upon a 12 mL application volume at a rate of 187 L/ha. Formulated compounds were applied to the plant material with an overhead Mandel track sprayer equipped with 8002E nozzles calibrated to deliver 187 L/ha over an application area of 0.503 square meters (m^2) at a spray height of 18 inches (43 cm) above average plant canopy height. Control plants were sprayed in the same manner with the solvent blank.
(§3) The treated plants and control plants were placed in a greenhouse as described above and watered by sub-irrigation to prevent wash-off of the test compounds. After 20-22 days, the condition of the test plants, compared with that of the untreated plants, was determined visually and scored on a scale of 0 to 100 percent where 0 corresponds to no injury and 100 corresponds to complete kill and presented as indicated in Table A.
(§4) By applying the well-accepted probit analysis as described by J. Berkson in Journal of the American Statistical Society, 48, 565 (1953) and by D. Finney in “Probit Analysis” Cambridge University Press (1952), herbicidal injury of a specific compound at various rates can be used to calculate GR20, GR50, GR80 and GR90 values, which are defined as growth reduction factors that correspond to the effective dose of herbicide required to provide plant growth reduction (GR) of 20 percent, 50 percent, 80 percent and 90 percent, respectively. Probit analysis was applied to data collected from multiple dose rates of individual compounds utilizing the procedures explained in the following examples. The analysis of those dose rates is captured in the following tables

Row | SMILES | Visual Growth Reduction (%) 21 Days After Application, SEBEX
1 | COC(=O)c1nc(-c2ccc(C(F)(F)F)nc2)c(Cl)c(N)c1Cl [Compound 83] | A (95-100)

Same assay, conditions: 70 g ai/ha, postemergence, direct seeded rice

Row | SMILES | Visual Growth Reduction (%) 21 Days After Application, SEBEX
2 | COC(=O)c1nc(-c2ccc(C(F)(F)F)nc2)c(Cl)c(N)c1Cl [Compound 83] | A (95-100)

Same assay, conditions: Growth reduction of 50% of plant growth, probit analysis

Row | SMILES | GR50, SEBEX [g ai/ha]
3 | COC(=O)c1nc(-c2ccc(C(F)(F)F)nc2)c(Cl)c(N)c1Cl [Compound 83] | 2

Same assay, conditions: Growth reduction of 80% of plant growth, probit analysis

Row | SMILES | GR80, SEBEX [g ai/ha]
4 | COC(=O)c1nc(-c2ccc(C(F)(F)F)nc2)c(Cl)c(N)c1Cl [Compound 83] | 5

Each compound was assayed on SCPJU: Japanese bulrush, Schoenoplectus juncoides in the same assay as above. Conditions: 35 g ai/ha, postemergence, direct seeded rice.
Assay type: in vivo
Source text: as §1, §2, §3, §4

Row | SMILES | Visual Growth Reduction (%) 21 Days After Application, SCPJU
5 | COC(=O)c1nc(-c2ccc(C(F)(F)F)nc2)c(Cl)c(N)c1Cl [Compound 83] | A (95-100)

Same assay, conditions: 70 g ai/ha, postemergence, direct seeded rice

Row | SMILES | Visual Growth Reduction (%) 21 Days After Application, SCPJU
6 | COC(=O)c1nc(-c2ccc(C(F)(F)F)nc2)c(Cl)c(N)c1Cl [Compound 83] | A (95-100)

Same assay, conditions: Growth reduction of 50% of plant growth, probit analysis

Row | SMILES | GR50, SCPJU [g ai/ha]
7 | COC(=O)c1nc(-c2ccc(C(F)(F)F)nc2)c(Cl)c(N)c1Cl [Compound 83] | <17.5

Same assay, conditions: Growth reduction of 80% of plant growth, probit analysis

Row | SMILES | GR80, SCPJU [g ai/ha]
8 | COC(=O)c1nc(-c2ccc(C(F)(F)F)nc2)c(Cl)c(N)c1Cl [Compound 83] | <17.5

These compounds were tested on BRAPP: broadleaf signalgrass, Brachiaria platyphylla in the same assay as above. Conditions: 35 g ai/ha, postemergence, direct seeded rice.
Assay type: in vivo
Source text: as §1, §2, §3, §4

Row | SMILES | Visual Growth Reduction (%) 21 Days After Application, BRAPP
9 | COC(=O)c1nc(-c2ccc(C(F)(F)F)nc2)c(Cl)c(N)c1Cl [Compound 83] | A (95-100)

Same assay, conditions: 70 g ai/ha, postemergence, direct seeded rice

Row | SMILES | Visual Growth Reduction (%) 21 Days After Application, BRAPP
10 | COC(=O)c1nc(-c2ccc(C(F)(F)F)nc2)c(Cl)c(N)c1Cl [Compound 83] | A (95-100)

Same assay, conditions: Growth reduction of 50% of plant growth, probit analysis

Row | SMILES | GR50, BRAPP [g ai/ha]
11 | COC(=O)c1nc(-c2ccc(C(F)(F)F)nc2)c(Cl)c(N)c1Cl [Compound 83] | 6

Same assay, conditions: Growth reduction of 80% of plant growth, probit analysis

Row | SMILES | GR80, BRAPP [g ai/ha]
12 | COC(=O)c1nc(-c2ccc(C(F)(F)F)nc2)c(Cl)c(N)c1Cl [Compound 83] | 16

These compounds were tested on CYPSS: sedge including small-flower flatsedge (Cyperus difformis), yellow nutsedge (Cyperus esculentus), rice flatsedge (Cyperus iria) in the same assay as above. Conditions: 35 g ai/ha, postemergence, direct seeded rice.
Assay type: in vivo
Source text: as §1, §2, §3, §4

Row | SMILES | Visual Growth Reduction (%) 21 Days After Application, CYPSS
13 | COC(=O)c1nc(-c2ccc(C(F)(F)F)nc2)c(Cl)c(N)c1Cl [Compound 83] | A (95-100)

Same assay, conditions: 70 g ai/ha, postemergence, direct seeded rice

Row | SMILES | Visual Growth Reduction (%) 21 Days After Application, CYPSS
14 | COC(=O)c1nc(-c2ccc(C(F)(F)F)nc2)c(Cl)c(N)c1Cl [Compound 83] | A (95-100)

Same assay, conditions: Growth reduction of 50% of plant growth, probit analysis

Row | SMILES | GR50, CYPSS [g ai/ha]
15 | COC(=O)c1nc(-c2ccc(C(F)(F)F)nc2)c(Cl)c(N)c1Cl [Compound 83] | 2

Same assay, conditions: Growth reduction of 80% of plant growth, probit analysis

Row | SMILES | GR80, CYPSS [g ai/ha]
16 | COC(=O)c1nc(-c2ccc(C(F)(F)F)nc2)c(Cl)c(N)c1Cl [Compound 83] | 3

What follows are compounds tested on ORYSS: Oryza sativa in the same assay as above. Conditions: 35 g ai/ha, postemergence, direct seeded rice.
Assay type: in vivo
Source text: as §1, §2, §3, §4

Row | SMILES | Visual Growth Reduction (%) 21 Days After Application, ORYSS
17 | COC(=O)c1nc(-c2ccc(C(F)(F)F)nc2)c(Cl)c(N)c1Cl [Compound 83] | E (45-59)

Same assay, conditions: 70 g ai/ha, postemergence, direct seeded rice

Row | SMILES | Visual Growth Reduction (%) 21 Days After Application, ORYSS
18 | COC(=O)c1nc(-c2ccc(C(F)(F)F)nc2)c(Cl)c(N)c1Cl [Compound 83] | F (30-44)

Same assay, conditions: Growth reduction of 20% of plant growth, probit analysis

Row | SMILES | GR20, ORYSS [g ai/ha]
19 | COC(=O)c1nc(-c2ccc(C(F)(F)F)nc2)c(Cl)c(N)c1Cl [Compound 83] | 23

Each compound was assayed on ECHSS: including barnyardgrass, (Echinochloa crus-galli), junglerice, (Echinochloa colonum) in the same assay as above. Conditions: 35 g ai/ha, postemergence, direct seeded rice.
Assay type: in vivo
Source text: as §1, §2, §3, §4

Row | SMILES | Visual Growth Reduction (%) 21 Days After Application, ECHSS
20 | COC(=O)c1nc(-c2ccc(C(F)(F)F)nc2)c(Cl)c(N)c1Cl [Compound 83] | A (95-100)

Same assay, conditions: 70 g ai/ha, postemergence, direct seeded rice

Row | SMILES | Visual Growth Reduction (%) 21 Days After Application, ECHSS
21 | COC(=O)c1nc(-c2ccc(C(F)(F)F)nc2)c(Cl)c(N)c1Cl [Compound 83] | A (95-100)

Same assay, conditions: Growth reduction of 50% of plant growth, probit analysis

Row | SMILES | GR50, ECHSS [g ai/ha]
22 | COC(=O)c1nc(-c2ccc(C(F)(F)F)nc2)c(Cl)c(N)c1Cl [Compound 83] | 3

Same assay, conditions: Growth reduction of 80% of plant growth, probit analysis

Row | SMILES | GR80, ECHSS [g ai/ha]
23 | COC(=O)c1nc(-c2ccc(C(F)(F)F)nc2)c(Cl)c(N)c1Cl [Compound 83] | 9

The compounds below were run on LEFSS: sprangletop including Chinese sprangletop (Leptochloa chinensis), green sprangletop (Leptochloa dubia) in the same assay as above. Conditions: 35 g ai/ha, postemergence, direct seeded rice.
Assay type: in vivo
Source text: as §1, §2, §3, §4

Row | SMILES | Visual Growth Reduction (%) 21 Days After Application, LEFSS
24 | COC(=O)c1nc(-c2ccc(C(F)(F)F)nc2)c(Cl)c(N)c1Cl [Compound 83] | B (85-94)

Same assay, conditions: 70 g ai/ha, postemergence, direct seeded rice

Row | SMILES | Visual Growth Reduction (%) 21 Days After Application, LEFSS
25 | COC(=O)c1nc(-c2ccc(C(F)(F)F)nc2)c(Cl)c(N)c1Cl [Compound 83] | D (60-74)

Same assay, conditions: Growth reduction of 50% of plant growth, probit analysis

Row | SMILES | GR50, LEFSS [g ai/ha]
26 | COC(=O)c1nc(-c2ccc(C(F)(F)F)nc2)c(Cl)c(N)c1Cl [Compound 83] | 27

Same assay, conditions: Growth reduction of 80% of plant growth, probit analysis

Row | SMILES | GR80, LEFSS [g ai/ha]
27 | COC(=O)c1nc(-c2ccc(C(F)(F)F)nc2)c(Cl)c(N)c1Cl [Compound 83] | 53
